Data published in patent US20230002352A1, “SULFONAMIDE DERIVATIVES AS CTPS1 INHIBITORS” (Step Pharma S.A.S., priority 2019, published 2023).
Where two headings read alike, the source gives them in different places.

How the values were obtained:
human CTPS1 = target: T1, human CTPS1 (Homo sapiens, UniProt P17812); assay: Human CTPS1 enzyme inhibition (ADP-Glo Max assay); assay type: biochemical; details: ADP-Glo Max assay, read-out: CTPS1 (Human CTPS1 Enzyme Inhibition data grouped by potency range, IC50)
T1 construct: purchased Proteros biostructures GmbH
T1 sequence (P17812 1-591): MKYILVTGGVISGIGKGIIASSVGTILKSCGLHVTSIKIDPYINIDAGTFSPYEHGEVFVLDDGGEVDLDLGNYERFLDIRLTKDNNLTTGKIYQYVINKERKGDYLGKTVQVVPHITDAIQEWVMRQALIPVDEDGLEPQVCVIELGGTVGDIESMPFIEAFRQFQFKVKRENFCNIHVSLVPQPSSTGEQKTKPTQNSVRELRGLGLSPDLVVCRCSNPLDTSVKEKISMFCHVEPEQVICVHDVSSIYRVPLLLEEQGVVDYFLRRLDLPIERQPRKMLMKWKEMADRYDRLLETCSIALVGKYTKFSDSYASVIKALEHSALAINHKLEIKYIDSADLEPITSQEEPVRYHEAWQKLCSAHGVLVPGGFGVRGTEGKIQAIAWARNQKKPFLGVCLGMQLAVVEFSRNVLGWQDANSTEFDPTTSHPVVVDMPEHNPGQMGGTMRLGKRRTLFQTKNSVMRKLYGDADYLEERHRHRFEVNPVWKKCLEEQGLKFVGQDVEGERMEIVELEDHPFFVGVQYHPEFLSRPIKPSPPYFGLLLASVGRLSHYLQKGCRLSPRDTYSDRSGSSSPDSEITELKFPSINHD
Summary of the method: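 Full-length FLAG-His-tagged human CTPS1 and compound were preincubated 10 min at 25 °C in 50 mM Tris pH 8.0, 10 mM MgCl2, 0.01% Tween-20, 2 mM L-cysteine. Substrate mix: ATP 0.31 mM, GTP 0.034 mM, UTP 0.48 mM, glutamine 0.186 mM; linear-phase reaction at 25 °C. ADP-Glo Max luminescence; IC50 from inhibition curve.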

human CTPS1 versus CTPS2 = assay: Human CTPS1 versus CTPS2 selectivity assessment by RapidFire/MS analysis; assay type: biochemical
Procedure: Biological Example 2—RapidFire/MS-Based Enzyme Selectivity Assays.
Human CTPS1 Versus CTPS2 Selectivity Assessment by RapidFire/MS Analysis.
The enzyme inhibitory activities against each target isoform of interest may be determined for the compounds of the invention using an optimised RapidFire high-throughput mass spectrometry (RF/MS) assay format. RF/MS assays for both human CTPS1 and CTPS2 may be performed in assay buffer consisting of 50 mM HEPES (Merck), 20 mM MgCl2, 5 mM KCl, 1 mM DTT, 0.01% Tween-20, pH to 8.0 accordingly. Human full-length active C-terminal FLAG-His-tag CTPS1 (UniProtKB-P17812, CTPS[1-591]-[…]) may be obtained from Proteros biostructures GmbH. Human full length active C-terminal FLAG-His-Avi tagged CTPS2 (UniProtKB-Q9NRF8, CTPS2 [1-586]-[…]) may be obtained from Harker Bio.
Human CTPS (1 or 2) protein may be prepared in 1× assay buffer to the final working protein concentration required for the reaction. A 2 uL volume per well of 2×CTPS (1 or 2) protein may be mixed with 40 nL of compound using acoustic (ECHO) delivery and incubated for 10 minutes at 25° C. Each isoform enzymatic reaction may be subsequently initiated by addition of 2 uL per well of a 2× substrate mix in assay buffer. For hCTPS1: ATP (0.3 mM), UTP (0.2 mM), GTP (0.07 mM) and L-glutamine (0.1 mM). For hCTPS2: ATP (0.1 mM), UTP (0.04 mM), GTP (0.03 mM) and L-glutamine (0.1 mM). Each mixture may be incubated for an appropriate amount of time per isoform within the determined linear phase of the reaction at 25° C. A 60 uL volume of stop solution (1% formic acid with 0.5 uM ^13C9-^15N3-CTP in H2O) may be added and the plate immediately heat-sealed and centrifuged for 10 minutes at 4,000 rpm. Following centrifugation, plates may be loaded onto the Agilent RapidFire microfluidic solid phase extraction system coupled to an AP14000 triple quadrupole mass spectrometer (RF/MS) for analysis.
In all cases, the enzyme converts UTP to CTP. Highly specific and sensitive multiple reaction monitoring (MRM) MS methods may be optimised for the detection of the enzymatic reaction product, CTP, and the stable isotope labelled product standard ^13C9-^15N3-CTP. Readout for data analysis may be calculated as the ratio between the peak area of the product CTP and the internal standard ^13C9-^15N3-CTP. For data reporting, the following equation may be used: […]
For each screening plate, the means of the negative (DMSO) and positive control values were used for the calculation of the respective assay window (S/B) and Z′ values. The median of the respective control values was used for calculation of percent inhibition according to the following equation: […]
Percentage inhibition was then plotted against compound concentration, and the 50% inhibitory concentration (IC50) was determined from the resultant concentration-response curve.
Fold selectivity between CTPS1 and CTPS2 was subsequently calculated according to the following equation: […]

SMILES | IC50 (human CTPS1; Table 23) [nM] | Selectivity (fold selectivity between CTPS1 and CTPS2) (human CTPS1 versus CTPS2; Table 26) | IC50 (human CTPS1; Table 24) [nM] | Selectivity (fold selectivity between CTPS1 and CTPS2) (human CTPS1 versus CTPS2; Table 27)
CCOc1cncc(-c2ccc(NC(=O)C(C)(C)c3nc(NS(=O)(=O)C4CC4)ncc3F)cc2)n1 [Example P68] | 100 to 1000 | ++ (>30-60 fold (++)) |  | 
CCOc1cncc(-c2ccc(NC(=O)C(F)(CC)c3ccnc(NS(C)(=O)=O)n3)nc2)n1 (stereo not shown) [Example P151] | ≤ 100 | +++ (>60 fold (+++)) |  | 
CCOc1cncc(-c2ccc(NC(=O)C3(c4ccnc(NS(=O)(=O)C5CC5)n4)CCOCC3)c(F)c2)n1 [Example P143] | ≤ 100 | +++ (>60 fold (+++)) |  | 
CC(C)Oc1cncc(-c2ccc(NC(=O)Cc3ccnc(NS(=O)(=O)C4CC4)n3)cc2)n1 [Example P21] | ≤ 100 | ++ (>30-60 fold (++)) |  | 
CCOc1cncc(-c2ccc(NC(=O)Cc3ccnc(NS(=O)(=O)C4CC4)n3)cc2)n1 [Example P18, 2-(2-(Cyclopropanesulfonamido)pyrimidin-4-yl)-N-(4-(6-ethoxypyrazin-2-yl)phenyl)acetamide] | ≤ 100 | ++ (>30-60 fold (++)) |  | 
CC(C)(NC(=O)c1ccc(-c2cncc(C(F)(F)F)n2)cc1)c1cncc(NS(=O)(=O)C2CC2)n1 [Example P222] | 100 to 1000 | + (2-30 fold (+)) |  | 
CCOc1cncc(-c2cnc(NC(=O)C(CC)c3ccnc(NS(=O)(=O)C4CC4)n3)c(F)c2)n1 (stereo not shown) [Example P162] | ≤ 100 | ++ (>30-60 fold (++)) |  | 
CCOc1cncc(-c2ccc(NC(=O)C(C)(C)c3cncc(NS(=O)(=O)C4CC4)n3)cc2)n1 [Example P196] | ≤ 100 | +++ (>60 fold (+++)) |  | 
CCOc1cncc(-c2ccc(NC(=O)C3(c4ccnc(NS(=O)(=O)C5CC5)n4)CC3)cc2)n1 [Example P83] | ≤ 100 | +++ (>60 fold (+++)) |  | 
CCOc1cncc(-c2ccc(NC(=O)C3(c4ccnc(NS(=O)(=O)C5CC5)n4)CCC4(CC3)OCCO4)nc2)n1 [Example P244, 8-(2-(cyclopropanesulfonamido)pyrimidin-4-yl)-N-(5-(6-ethoxypyrazin-2-yl)pyridin-2-yl)-1,4-dioxaspiro[4.5]decane-8-carboxamide] |  |  | ≤ 100 | +++ (>60 fold (+++))
CCOc1cncc(-c2ccc(C(=O)NCc3ccnc(NS(=O)(=O)C4CC4)n3)cc2)n1 [Example P118] | ≤ 100 | +++ (>60 fold (+++)) |  | 
CC(C)c1cncc(-c2ccc(NC(=O)C(C)(C)c3ccnc(NS(=O)(=O)C4CC4)n3)cc2)n1 [Example P132] | 100 to 1000 | ++ (>30-60 fold (++)) |  | 
CCOc1cncc(-c2ccc(NC(=O)C3(c4ccnc(NS(=O)(=O)C5CC5)n4)CCN(S(C)(=O)=O)CC3)nc2)n1 [Example P251] |  |  | ≤ 100 | +++ (>60 fold (+++))
CC(C)Oc1cncc(-c2ccc(NC(=O)Cc3ccnc(NS(=O)(=O)C4CC4)n3)c(F)c2)n1 [Example P12] | ≤ 100 | ++ (>30-60 fold (++)) |  | 
CC(C)(C(=O)Nc1ccc(-c2cccnc2)cc1)c1ccnc(NS(=O)(=O)C2CC2)n1 [Example P59] | 1000 to 10000 | + (2-30 fold (+)) |  | 
CCOc1cncc(-c2ccc(NC(=O)C3(c4ccnc(NS(=O)(=O)C5CC5)n4)CCOCC3)nc2)n1 [Example P115, 4-(2-(Cyclopropanesulfonamido)pyrimidin-4-yl)-N-(5-(6-ethoxypyrazin-2-yl)pyridin-2-yl)tetrahydro-2H-pyran-4-carboxamide] | ≤ 100 | +++ (>60 fold (+++)) |  | 
CCOc1cncc(-c2ccc(NC(=O)C(CCOC)c3ccnc(NS(=O)(=O)C4CC4)n3)nc2)n1 (stereo not shown) [Example P145] | ≤ 100 | +++ (>60 fold (+++)) |  | 
CCOc1cncc(-c2ccc(NC(=O)C(C)(C)c3ccnc(NS(=O)(=O)C4CC4)n3)c(F)c2)n1 [Example P38] | ≤ 100 | + (2-30 fold (+)) |  | 
CCOc1cncc(-c2ccc(NC(=O)C(C)(C)c3ccnc(NS(C)(=O)=O)n3)nc2)n1 [Example P76] | 100 to 1000 | ++ (>30-60 fold (++)) |  | 
CCOc1cncc(-c2ccc(NC(=O)C(F)(CC)c3cncc(NS(=O)(=O)C4CC4)n3)nc2)n1 (single isomer, unassigned) [Example P206] |  | +++ (>60 fold (+++)) |  | 
CCOc1cncc(-c2ccc(NC(=O)C(CC)c3cncc(NS(=O)(=O)C4CC4)n3)nc2)n1 (stereo not shown) [Example P201] |  | +++ (>60 fold (+++)) |  | 
CCOc1cncc(-c2ccc(NC(=O)C(C)(CCOC)c3cncc(NS(=O)(=O)C4CC4)n3)nc2)n1 (stereo not shown) [Example P198] |  | +++ (>60 fold (+++)) |  | 
CCC(C(=O)Nc1ccc(-c2cncc(OCC(F)(F)F)n2)cc1)c1ccnc(NS(=O)(=O)C2CC2)n1 (stereo not shown) [Example P108] |  | +++ (>60 fold (+++)) |  | 
CCOc1cncc(-c2ccc(NC(=O)C(F)(CC)c3ccnc(NS(=O)(=O)C4CC4)n3)nc2)n1 (racemic) [Example P112, 2-(2-(Cyclopropanesulfonamido)pyrimidin-4-yl)-N-(5-(6-ethoxypyrazin-2-yl)pyridin-2-yl)-2-fluorobutanamide] |  | ++ (>30-60 fold (++)) |  | 
CCOc1cncc(-c2ccc(NC(=O)C(CC)c3ccnc(NS(=O)(=O)C4CC4)n3)cc2)n1 (stereo not shown) [Example P105, 2-(2-(Cyclopropanesulfonamido)pyrimidin-4-yl)-N-(4-(6-ethoxypyrazin-2-yl)phenyl)butanamide] |  | ++ (>30-60 fold (++)) |  | 
CCC(C(=O)Nc1ccc(-c2cncc(C(F)(F)F)n2)cc1)c1ccnc(NS(=O)(=O)C2CC2)n1 (stereo not shown) [Example P103] |  | + (2-30 fold (+)) |  | 
CCOc1cncc(-c2ccc(NC(=O)C(CC)c3cccc(NS(=O)(=O)C4CC4)n3)nc2)n1 (stereo not shown) [Example P188] |  | ++ (>30-60 fold (++)) |  | 
